We go through 15 compounds from ChEMBL document CHEMBL1127528, “Synthesis and carbonic anhydrase inhibitory activity of 4-substituted 2-thiophenesulfonamides” (J Med Chem, 1994).

In one experiment the target is Carbonic anhydrase 2 (Homo sapiens, UniProt P00918).
Experiment [1] in a line: Ocular sensitization assay as susceptibility to nucleophilic attack by cysteine. In kind it is functional.

Description for Carbonic anhydrase 2: Activity against human carbonic anhydrase II

What is called IC50 is the concentration that gives 50% inhibition. Lower therefore signals greater potency in that assay. For the compound `CCCCC(O[Si](C)(C)C(C)(C)C)c1csc(S(N)(=O)=O)c1` (stereo unspecified), at Carbonic anhydrase 2, half-maximal inhibition (IC50) was put at 200 nM.

For `CCCCCC/C(=N\O)c1csc(S(N)(=O)=O)c1`, at Carbonic anhydrase 2, it took 5.8 nM to reach half-maximal inhibition (IC50). Besides, in experiment [1], the Cysteine reaction was found to be 5e-05 min⁻¹.

Take `CCCCCC/C(=N\OC)c1csc(S(N)(=O)=O)c1`: on Carbonic anhydrase 2, the IC50 was 4.7 nM. In addition, the Cysteine reaction in experiment [1] stood at 5e-05 min⁻¹.

`CCCCCCC(O)c1csc(S(N)(=O)=O)c1` (stereo unspecified) had an IC50 on Carbonic anhydrase 2 of 13 nM. Besides, the Cysteine reaction in experiment [1] is less than 5e-05 min⁻¹.

With `CC(C)CN[C@H]1CCS(=O)(=O)c2sc(S(N)(=O)=O)cc21`, the Cysteine reaction in experiment [1] was less than 5e-05 min⁻¹.

`CCCCNC(C)c1csc(S(N)(=O)=O)c1` (stereo unspecified) displayed an IC50 on Carbonic anhydrase 2 of 590 nM.

Compound `CC(=O)c1csc(S(N)(=O)=O)c1` registered an IC50 on Carbonic anhydrase 2 of 16 nM.

On to `CC(=O)Nc1nnc(S(N)(=O)=O)s1`, for which the Cysteine reaction in experiment [1] amounted to 3.5e-05 min⁻¹.

On Carbonic anhydrase 2, `NS(=O)(=O)c1cc(C(=O)c2ccccc2)cs1` gave an IC50 of 6.8 nM. In addition, in experiment [1], the Cysteine reaction came out at 5e-05 min⁻¹.

As to `CCCCCC/C(=N\N)c1csc(S(N)(=O)=O)c1`, the IC50 against Carbonic anhydrase 2 was 2 nM. The Cysteine reaction in experiment [1] was found to be 5e-05 min⁻¹.

At Carbonic anhydrase 2, `CCCCC(=O)c1csc(S(N)(=O)=O)c1` yielded an IC50 of 6.3 nM.

On Carbonic anhydrase 2, `CCCCC(N)c1csc(S(N)(=O)=O)c1` (stereo unspecified) displayed an IC50 of 626 nM.

Compound `CCCCCCC(N)c1csc(S(N)(=O)=O)c1` (stereo unspecified) showed an IC50 on Carbonic anhydrase 2 of 160 nM.

`CCCCCCC(=O)c1csc(S(N)(=O)=O)c1` showed an IC50 against Carbonic anhydrase 2 of 5 nM. In experiment [1], the Cysteine reaction was 5e-05 min⁻¹.

`CCCC/C(=N\O)c1csc(S(N)(=O)=O)c1` returned an IC50 against Carbonic anhydrase 2 of 15 nM.
